This is an account of results in patent US9243001B2, “Substituted benzene compounds” (Epizyme, Inc., priority 2013, dated 2016).

A value given as a limit tells only on which side of the number the result lay.

T1 sequence (Q15910 1-751 isoform Q15910-2): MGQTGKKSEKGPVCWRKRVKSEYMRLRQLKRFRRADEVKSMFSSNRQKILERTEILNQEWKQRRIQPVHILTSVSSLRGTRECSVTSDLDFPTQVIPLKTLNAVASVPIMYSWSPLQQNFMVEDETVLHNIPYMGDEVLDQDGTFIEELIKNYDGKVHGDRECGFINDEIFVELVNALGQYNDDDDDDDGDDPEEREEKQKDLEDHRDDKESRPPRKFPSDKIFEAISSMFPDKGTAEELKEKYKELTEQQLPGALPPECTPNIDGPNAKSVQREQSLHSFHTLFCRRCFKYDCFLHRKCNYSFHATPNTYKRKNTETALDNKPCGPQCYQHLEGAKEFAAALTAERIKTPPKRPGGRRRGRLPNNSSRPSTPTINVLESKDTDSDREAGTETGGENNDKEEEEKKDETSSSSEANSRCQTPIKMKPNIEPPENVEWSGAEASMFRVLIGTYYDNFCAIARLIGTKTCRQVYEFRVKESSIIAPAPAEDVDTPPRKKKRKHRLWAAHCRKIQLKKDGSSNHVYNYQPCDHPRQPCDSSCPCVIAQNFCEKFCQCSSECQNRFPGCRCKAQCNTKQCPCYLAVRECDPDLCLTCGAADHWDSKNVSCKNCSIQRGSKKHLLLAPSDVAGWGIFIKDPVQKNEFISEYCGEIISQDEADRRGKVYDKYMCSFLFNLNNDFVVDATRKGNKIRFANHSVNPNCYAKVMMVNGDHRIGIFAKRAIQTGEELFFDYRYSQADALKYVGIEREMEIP
T1 sequence (O75530 whole entry partner): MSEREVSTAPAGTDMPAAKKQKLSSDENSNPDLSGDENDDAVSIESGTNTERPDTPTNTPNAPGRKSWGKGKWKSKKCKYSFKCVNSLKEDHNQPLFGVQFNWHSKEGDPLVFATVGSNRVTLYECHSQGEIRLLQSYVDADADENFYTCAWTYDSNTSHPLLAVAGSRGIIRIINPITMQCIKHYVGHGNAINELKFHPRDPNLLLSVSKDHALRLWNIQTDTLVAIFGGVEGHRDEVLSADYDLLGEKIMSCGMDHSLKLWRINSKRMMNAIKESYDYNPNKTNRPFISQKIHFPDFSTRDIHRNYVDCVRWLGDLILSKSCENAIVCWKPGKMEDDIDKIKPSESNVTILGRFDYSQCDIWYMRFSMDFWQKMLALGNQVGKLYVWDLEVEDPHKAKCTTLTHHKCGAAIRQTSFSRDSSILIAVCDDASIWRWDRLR
T1 sequence (Q15022 whole entry partner): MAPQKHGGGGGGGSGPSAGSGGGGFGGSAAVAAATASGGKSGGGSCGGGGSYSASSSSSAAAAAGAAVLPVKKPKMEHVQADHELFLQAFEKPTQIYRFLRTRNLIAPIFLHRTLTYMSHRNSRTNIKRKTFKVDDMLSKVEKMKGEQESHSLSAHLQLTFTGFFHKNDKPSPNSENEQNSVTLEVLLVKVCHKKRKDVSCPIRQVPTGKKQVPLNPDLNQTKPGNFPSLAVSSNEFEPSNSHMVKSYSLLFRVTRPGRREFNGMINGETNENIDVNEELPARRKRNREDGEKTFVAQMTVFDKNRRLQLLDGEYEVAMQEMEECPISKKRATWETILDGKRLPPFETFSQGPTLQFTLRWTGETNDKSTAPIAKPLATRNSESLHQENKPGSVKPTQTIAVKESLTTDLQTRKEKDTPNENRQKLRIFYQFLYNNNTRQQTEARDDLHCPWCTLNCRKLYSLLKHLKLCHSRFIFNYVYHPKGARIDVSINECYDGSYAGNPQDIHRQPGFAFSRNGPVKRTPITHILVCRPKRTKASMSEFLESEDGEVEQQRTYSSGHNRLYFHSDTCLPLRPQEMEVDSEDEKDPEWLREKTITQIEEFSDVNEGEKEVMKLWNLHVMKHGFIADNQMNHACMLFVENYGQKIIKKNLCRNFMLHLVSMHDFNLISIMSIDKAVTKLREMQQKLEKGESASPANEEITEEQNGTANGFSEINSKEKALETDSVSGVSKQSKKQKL
T1 sequence (Q09028 whole entry partner): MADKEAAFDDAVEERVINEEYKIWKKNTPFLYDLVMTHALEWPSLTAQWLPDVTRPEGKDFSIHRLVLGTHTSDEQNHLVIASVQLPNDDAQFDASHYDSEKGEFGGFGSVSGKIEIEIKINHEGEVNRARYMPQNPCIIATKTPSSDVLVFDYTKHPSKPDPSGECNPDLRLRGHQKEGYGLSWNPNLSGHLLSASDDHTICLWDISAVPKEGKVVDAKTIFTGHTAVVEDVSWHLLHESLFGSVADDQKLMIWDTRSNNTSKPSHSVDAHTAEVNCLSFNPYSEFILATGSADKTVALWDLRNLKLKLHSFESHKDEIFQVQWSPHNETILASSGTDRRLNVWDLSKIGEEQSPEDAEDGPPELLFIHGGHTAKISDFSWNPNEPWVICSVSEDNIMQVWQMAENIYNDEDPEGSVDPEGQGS

The assay addresses T1, wild-type EZH2 (PRC2 enzyme) (Homo sapiens, UniProt Q15910).
T1 construct: made in house; host or cells: Spodoptera frugiperda (sf9) cells, baculovirus
The assay is described as follows: PRC2 enzyme assay on peptide substrates (wild-type EZH2). The class given is biochemical. The note with it: wild-type PRC2 enzyme 4 nM, H3K27me0 peptide substrate, 3H-SAM Flashplate; read-out: WT EZH2 IC50. The source says:
General Materials. S-adenosylmethionine (SAM), S-adenosylhomocyteine (SAH), bicine, KCl, Tween20, dimethylsulfoxide (DMSO) and bovine skin gelatin (BSG) were purchased from Sigma-Aldrich at the highest level of purity possible. Dithiothreitol (DTT) was purchased from EMD Millipore. ^3H-SAM was purchased from American Radiolabeled Chemicals with a specific activity of 80 Ci/mmol. 384-well streptavidin Flashplates were purchased from PerkinElmer.
Substrates. Peptides representative of human histone H3 residues 21- 44 containing either an unmodified lysine 27 (H3K27me0) or dimethylated lysine 27 (H3K27me2) are synthesized with a C-terminal G(K-biotin) linker-affinity tag motif and a C-terminal amide cap by 21st Century Biochemicals. The peptides are high-performance liquid chromatography (HPLC) purified to greater than 95% purity and confirmed by liquid chromatography mass spectrometry (LC-MS). The sequences are listed below.
Recombinant PRC2 Enzymes. Human PRC2 enzymes were purified as 4-component enzyme complexes co-expressed in Spodoptera frugiperda (sf9) cells using a baculovirus expression system. The subunits expressed were wild-type EZH2 (NM_004456) or EZH2 Y641F, N, H, S or C mutants generated from the wild-type EZH2 construct, EED (NM_003797), Suz12 (NM_015355) and RbAp48 (NM_005610). The EED subunit contained an N-terminal FLAG tag that was used to purify the entire 4-component complex from sf9 cell lysates. The purity of the complexes met or exceeded 95% as determined by SDS-PAGE and Agilent Bioanalyzer analysis. Concentrations of enzyme stock concentrations (generally 0.3-1.0 mg/mL) was determined using a Bradford assay against a bovine serum albumin (BSA) standard.
General Procedure for PRC2 Enzyme Assays on Peptide Substrates. The assays were all performed in a buffer consisting of 20 mM bicine (pH=7.6), 0.5 mM DTT, 0.005% BSG and 0.002% Tween20, prepared on the day of use. Compounds in 100% DMSO (1 μL) were spotted into polypropylene 384-well V-bottom plates (Greiner) using a Platemate 2×3 outfitted with a 384-channel pipet head (Thermo). DMSO (1 μL) was added to columns 11, 12, 23, 24, rows A -H for the maximum signal control, and SAH, a known product and inhibitor of PRC2 (1 μL) was added to columns 11,12, 23, 24, rows I -P for the minimum signal control. A cocktail (40 μL) containing the wild-type PRC2 enzyme and H3K27me0 peptide or any of the Y641 mutant enzymes and H3K27me2 peptide was added by Multidrop Combi (Thermo). The compounds were allowed to incubate with PRC2 for 30 min at 25° C., then a cocktail (10 μL) containing a mixture of non-radioactive and ^3H-SAM was added to initiate the reaction (final volume=51 μL). In all cases, the final concentrations were as follows: wild-type or mutant PRC2 enzyme was 4 nM, SAH in the minimum signal control wells was 1 mM and the DMSO concentration was 1%. The assays were stopped by the addition of non-radioactive SAM (10 μL) to a final concentration of 600 μM, which dilutes the ^3H-SAM to a level where its incorporation into the peptide substrate is no longer detectable. 50 μL of the reaction in the 384-well polypropylene plate was then transferred to a 384-well Flashplate and the biotinylated peptides were allowed to bind to the streptavidin surface for at least 1 h before being washed three times with 0.1% Tween20 in a Biotek ELx405 plate washer. The plates were then read in a PerkinElmer TopCount platereader to measure the quantity of ^3H-labeled peptide bound to the Flashplate surface, measured as disintegrations per minute (dpm) or alternatively, referred to as counts per minute (cpm).
Where dpm=disintegrations per minute, cmpd=signal in assay well, and min and max are the respective minimum and maximum signal controls.
Where top and bottom are the normally allowed to float, but may be fixed at 100 or 0 respectively in a 3-parameter fit. The Hill Coefficient normally allowed to float but may also be fixed at 1 in a 3-parameter fit. […]
As to `CCN(c1cc(Cl)cc(C(=O)NCc2c(C)cc(C)n3ccnc23)c1C)[C@H]1CC[C@H](N(C)C)CC1` [Compound 1, 5-chloro-3-(((trans)-4-(dimethylamino)cyclohexyl)(ethyl)amino)-N-((5,7-dimethylimidazo[1,2-a]pyridin-8-yl)methyl)-2-methylbenzamide], the IC50 came to 0.433 µM.
For `CCN(c1cc(Cl)cc(C(=O)NCc2c(C)ccn3ccnc23)c1C)[C@H]1CC[C@H](N(C)C)CC1` [Compound 2, 5-chloro-3-(((trans)-4-(dimethylamino)cyclohexyl)(ethyl)amino)-2-methyl-N-((7-methylimidazo[1,2-a]pyridin-8-yl)methyl)benzamide], the IC50 was 1.38 µM.
Turning to `CCN(c1cc(Cl)cc(C(=O)NCc2cccn3ccnc23)c1C)[C@H]1CC[C@H](N(C)C)CC1` [Compound 3, 5-chloro-3-(((trans)-4-(dimethylamino)cyclohexyl)(ethyl)amino)-N-(imidazo[1,2-a]pyridin-8-ylmethyl)-2-methylbenzamide], the IC50 was 2.18 µM.
The same measure for `CCN(c1cc(Cl)cc(C(=O)NCc2ccc(C)c3cn(C)nc23)c1C)C1CCC(N(C)C)CC1` (stereo not shown) [Compound 4, 5-chloro-N-((2,4-dimethyl-2H-indazol-7-yl)methyl)-3-(((1s,4s)-4-(dimethylamino)cyclohexyl)(ethyl)amino)-2-methylbenzamide]: 5.13 µM; for `CCN(c1cc(Cl)cc(C(=O)NCc2c(C)ccc3cn(C)nc23)c1C)[C@H]1CC[C@H](N(C)C)CC1` [Compound 5, 5-chloro-N-((2,6-dimethyl-2H-indazol-7-yl)methyl)-3-(((trans)-4-(dimethylamino)cyclohexyl)(ethyl)amino)-2-methylbenzamide]: > 10 µM.
`CCN(c1cc(Cl)cc(C(=O)NCc2cccc3cn(C)nc23)c1C)[C@H]1CC[C@H](N(C)C)CC1` [Compound 6, 5-chloro-3-(((trans)-4-(dimethylamino)cyclohexyl)(ethyl)amino)-2-methyl-N-((2-methyl-2H-indazol-7-yl)methyl)benzamide]: the IC50 was > 10 µM.
The same measure for `CCN(c1cc(Cl)cc(C(=O)NCc2cccc3ccnn23)c1C)[C@H]1CC[C@H](N(C)C)CC1` [Compound 7, 5-chloro-3-(((trans)-4-(dimethylamino)cyclohexyl)(ethyl)amino)-2-methyl-N-(pyrazolo[1,5-a]pyridin-7-ylmethyl)benzamide]: > 10 µM; for `CCN(c1cc(Cl)cc(C(=O)NCCc2nccn2C)c1C)[C@H]1CC[C@H](N(C)C)CC1` [Compound 8, 5-chloro-3-(((trans)-4-(dimethylamino)cyclohexyl)(ethyl)amino)-2-methyl-N-(2-(1-methyl-1H-imidazol-2-yl)ethyl)benzamide]: 12.2 µM; for `CCN(c1cc(Cl)cc(C(=O)NCCc2nccn2Cc2ccccc2)c1C)[C@H]1CC[C@H](N(C)C)CC1` [Compound 9, N-(2-(1-benzyl-1H-imidazol-2-yl)ethyl)-5-chloro-3-(((trans)-4-(dimethylamino)cyclohexyl)(ethyl)amino)-2-methylbenzamide]: 1.65 µM.
With `CCN(c1cc(Cl)cc(C(=O)NCCc2ncc[nH]2)c1C)[C@H]1CC[C@H](N(C)C)CC1` [Compound 10, N-(2-(1H-imidazol-2-yl)ethyl)-5-chloro-3-(((trans)-4-(dimethylamino)cyclohexyl)(ethyl)amino)-2-methylbenzamide] the figure was 2.03 µM.
For the compound `CCN(c1cc(Cl)cc(C(=O)NCCc2nc3ccccc3n2C)c1C)[C@H]1CC[C@H](N(C)C)CC1` [Compound 11, 5-chloro-3-(((trans)-4-(dimethylamino)cyclohexyl)(ethyl)amino)-2-methyl-N-(2-(1-methyl-1H-benzo[d]imidazol-2-yl)ethyl)benzamide], the IC50 was > 50 µM.
Turning to `CCN(c1cc(Cl)cc(C(=O)NCCc2nccs2)c1C)[C@H]1CC[C@H](N(C)C)CC1` [Compound 12, 5-chloro-3-(((trans)-4-(dimethylamino)cyclohexyl)(ethyl)amino)-2-methyl-N-(2-(thiazol-2-yl)ethyl)benzamide], the IC50 was > 50 µM.
The same measure for `CCN(c1cc(Cl)cc(C(=O)NCCc2nc3ccccc3s2)c1C)[C@H]1CC[C@H](N(C)C)CC1` [Compound 13, N-(2-(benzo[d]thiazol-2-yl)ethyl)-5-chloro-3-(((trans)-4-(dimethylamino)cyclohexyl)(ethyl)amino)-2-methylbenzamide]: 37.7 µM.
With `CCN(c1cc(Cl)cc(C(=O)NCCc2nc3ccccc3o2)c1C)[C@H]1CC[C@H](N(C)C)CC1` [Compound 14, N-(2-(benzo[d]oxazol-2-yl)ethyl)-5-chloro-3-(((trans)-4-(dimethylamino)cyclohexyl)(ethyl)amino)-2-methylbenzamide] the figure was 6.55 µM.
The same measure for `CCN(c1cc(Cl)cc(C(=O)NCc2ncc[nH]2)c1C)[C@H]1CC[C@H](N(C)C)CC1` [Compound 15, N-((1H-imidazol-2-yl)methyl)-5-chloro-3-(((trans)-4-(dimethylamino)cyclohexyl)(ethyl)amino)-2-methylbenzamide]: > 10 µM.
As for `CCN(c1cc(Cl)cc(C(=O)NCc2nccn2C)c1C)[C@H]1CC[C@H](N(C)C)CC1` [Compound 16, 5-chloro-3-(((tans)-4-(dimethylamino)cyclohexyl)(ethyl)amino)-2-methyl-N-((1-methyl-1H-imidazol-2-yl)methyl)benzamide], the concentration for half-maximal inhibition (IC50) amounted to 3.11 µM.
With `CCN(c1cc(Cl)cc(C(=O)NCc2nccn2Cc2ccccc2)c1C)[C@H]1CC[C@H](N(C)C)CC1` [Compound 17, N-((1-benzyl-1H-imidazol-2-yl)methyl)-5-chloro-3-(((1r,4r)-4-(dimethylamino)cyclohexyl)(ethyl)amino)-2-methylbenzamide] the figure was 2.99 µM.
With `CCN(c1cc(Cl)cc(C(=O)NCc2nccn2C(C)C)c1C)[C@H]1CC[C@H](N(C)C)CC1` [Compound 18, 5-chloro-3-(((trans)-4-(dimethylamino)cyclohexyl)(ethyl)amino)-N-((1-isopropyl-1H-imidazol-2-yl)methyl)-2-methylbenzamide] the figure was > 10 µM.
The same measure for `CCN(c1cc(Cl)cc(C(=O)NCc2nc3ccccc3[nH]2)c1C)[C@H]1CC[C@H](N(C)C)CC1` [Compound 19, N-((1H-benzo[d]imidazol-2-yl)methyl)-5-chloro-3-(((1r,4r)-4-(dimethylamino)cyclohexyl)(ethyl)amino)-2-methylbenzamide]: > 10 µM; for `CCN(c1cc(Cl)cc(C(=O)NCc2ncc(C)[nH]2)c1C)[C@H]1CC[C@H](N(C)C)CC1` [Compound 20, 5-chloro-3-(((trans)-4-(dimethylamino)cyclohexyl)(ethyl)amino)-2-methyl-N-((5-methyl-1H-imidazol-2-yl)methyl)benzamide]: > 10 µM.
On to `CCN(c1cc(Cl)cc(C(=O)NCCc2nc3ccccc3[nH]2)c1C)[C@H]1CC[C@H](N(C)C)CC1` [Compound 21, N-(2-(1H-benzo[d]imidazol-2-yl)ethyl)-5-chloro-3-(((1r,4r)-4-(dimethylamino)cyclohexyl)(ethyl)amino)-2-methylbenzamide], for which the IC50 turned out to be 37.1 µM.
The same measure for `CCN(c1cc(Cl)cc(C(=O)NCc2cncn2C)c1C)C1CCOCC1` [Compound 22, 5-chloro-3-(ethyl(tetrahydro-2H-pyran-4-yl)amino)-2-methyl-N-((1-methyl-1H-imidazol-5-yl)methyl)benzamide]: > 50 µM.
